Measurements as given in ChEMBL document CHEMBL1129845, “Digitalis-like compounds: Synthesis and biological evaluation of 3-(aminoalkylthio) derivatives” (Bioorg Med Chem Lett, 1997).
Calls of active or inactive are those of the source. The rule behind the calls is not given here.

Target: not listed separately
Assay: Displacement of [3H]ouabain binding from Na+,K+ -ATPase receptor isolated from dog kidney
Set-up: species or system Canis lupus familiaris

| SMILES | -Log IC50 |
| --- | --- |
| C[C@]12CC[C@H](S)C[C@H]1CC[C@@H]1[C@@H]2CC[C@]2(C)[C@@H](C3=CC(=O)OC3)C[C@H]3O[C@]132 | 5.6 |
| CN(C)CCCS[C@H]1CC[C@@]2(C)[C@H](CC[C@@H]3[C@@H]2CC[C@]2(C)[C@@H](C4=CC(=O)OC4)CC[C@]32O)C1 | 7 |
| C[C@]12CC[C@H](SCC[N+](C)(C)C)C[C@H]1CC[C@@H]1[C@@H]2CC[C@]2(C)[C@@H](C3=CC(=O)OC3)CC[C@]12O | 7 |
| C[C@]12CC[C@H](SCCCN)C[C@H]1CC[C@@H]1[C@@H]2CC[C@]2(C)[C@@H]([C@@H]3COC(=O)C3)CC[C@]12O | 6.5 |
| C[C@]12CC[C@H](O)C[C@H]1CC[C@@H]1[C@@H]2CC[C@]2(C)[C@@H]([C@@H]3COC(=O)C3)CC[C@]12O | 5.6 |
| C[C@]12CC[C@H](SCCCN)C[C@H]1CC[C@@H]1[C@@H]2CC[C@]2(C)[C@@H](C3=CC(=O)OC3)CC[C@]12O | 7.1 |
| C[C@]12CC[C@H](SCCCN3CCCC3)C[C@H]1CC[C@@H]1[C@@H]2CC[C@]2(C)[C@@H](C3=CC(=O)OC3)CC[C@]12O | 6.8 |
| C[C@]12CC[C@H](S)C[C@H]1CC[C@@H]1[C@@H]2CC[C@]2(C)[C@@H]([C@@H]3COC(=O)C3)CC[C@]12O | 5 |
| C[C@]12CC[C@H](O)C[C@H]1CC[C@@H]1[C@@H]2CC[C@]2(C)[C@@H]([C@H]3COC(=O)C3)CC[C@]12O | 5.8 |
| C[C@]12CC[C@H](SCCCN)C[C@H]1CC[C@@H]1[C@@H]2CC[C@]2(C)[C@@H]([C@H]3COC(=O)C3)CC[C@]12O | 6.5 |
| C[C@]12CC[C@H](O)C[C@H]1CC[C@@H]1[C@@H]2CC[C@]2(C)[C@@H](C3=CC(=O)OC3)C[C@H]3O[C@]132 | 6.6 |
| C[C@]12CCC3C(CC[C@@H]4C[C@@H](SCCCN)CC[C@]34C)C1=CC[C@@H]2C1=CC(=O)OC1 (stereo partly drawn) | 5.8 |
| C[C@]12CCC3C(CC[C@@H]4C[C@@H](O)CC[C@]34C)C1=CC[C@@H]2C1=CC(=O)OC1 (stereo partly drawn) | 5.5 |
| C[C@]12CC[C@H](SCCCN)C[C@H]1CC[C@@H]1[C@@H]2CC[C@]2(C)[C@@H](C3=CC(=O)OC3)C[C@H]3O[C@]132 | 6.6 |
| C[C@]12CC[C@H](S)C[C@H]1CC[C@@H]1[C@@H]2CC[C@]2(C)[C@@H]([C@H]3COC(=O)C3)CC[C@]12O | 5.5 |
| C[C@]12CC[C@H](S)C[C@H]1CC[C@@H]1[C@@H]2CC[C@]2(C)[C@@H](C3=CC(=O)OC3)CC[C@]12O | 6 |
| C[C@]12CC[C@H](O)C[C@H]1CC[C@@H]1[C@@H]2CC[C@]2(C)[C@@H](C3=CC(=O)OC3)CC[C@]12O [DIGITOXIGENIN] | 7.2 |
| C[C@]12CC[C@H](SCCN3CCCC3)C[C@H]1CC[C@@H]1[C@@H]2CC[C@]2(C)[C@@H](C3=CC(=O)OC3)CC[C@]12O | 6.7 |
| C[C@]12CC[C@H](O)C[C@H]1CC[C@@H]1[C@@H]2CC[C@]2(C)[C@@H](C3=CC(=O)OC3)CC[C@@H]12 | 5.2 |
| C[C@]12CC[C@H](SCCCN3CCNCC3)C[C@H]1CC[C@@H]1[C@@H]2CC[C@]2(C)[C@@H](C3=CC(=O)OC3)CC[C@]12O | 6.5 |
| C[C@]12CC[C@H](SCCCN)C[C@H]1CC[C@@H]1[C@@H]2CC[C@]2(C)[C@@H](C3=CC(=O)OC3)CC[C@@H]12 | 5.8 |
| C[C@]12CC[C@H](SCCN)C[C@H]1CC[C@@H]1[C@@H]2CC[C@]2(C)[C@@H](C3=CC(=O)OC3)CC[C@]12O | 7.5 |

Organism: Canis lupus familiaris
Assay: Displacement of [3H]ouabain binding to Na+,K+ -ATPase receptor isolated from dog kidney; NA = <50% displacement at 10e-5 M

| SMILES | -Log IC50 |
| --- | --- |
| C[C@]12CC[C@H](S)C[C@H]1CC[C@@H]1[C@@H]2CC[C@]2(C)[C@@H](C3=CC(=O)OC3)CC[C@@H]12 | inactive |
